Laboratory results as given in patent US6455270B1, “Method for inhibiting eukaryotic protein kinases” (TerraGen Discovery Inc., priority 1997, dated 2002).

Columns and labels:
[1] = system: Streptomyces 85E; assay: Inhibition of sporulation in Streptomyces 85E (filter paper disc on freshly seeded plate); assay type: cell-based, Streptomyces WEC478-85E; details: for zone of inhibition at 10 µg/disc: Streptomyces, 85E, 10 ug compound applied to disc; for Growth of the vegetative mycelia: disc assay, 10 ug
Source text: adding the material to be tested for kinase inhibitory activity to a growing culture of a prokaryotic organism such as a streptomycete;
allowing the culture to grow for a period of time in the presence of the material; and
observing the culture for altered development relative to development of the prokaryotic organism grown in the absence of the material. Observation of altered development is indicative that the material has activity as an inhibitor of post-translational protein phosphorylation. In particular, the material to be tested can be added to a growing culture of the prokaryotic organism by placing a carrier disk bearing the material on a freshly seeded plate. Inhibition of the development of aerial mycelia and spore formation is an indicator that the material has activity as an inhibitor of post-translational protein phosphorylation.
We have used a wild strain of Streptomyces isolated from soil and designated Streptomyces WEC478-85E (hereinafter strain 85E) to test lichen extracts. Strain 85E has been deposited with the American Type, Culture Collection in accordance with the provisions of the Budapest treaty and has been assigned Accession Number ATCC 55824.
In the test assay, the lichen-extract to be tested was applied to a filter paper disk and then placed on a plate which has been freshly seeded with the strain 85E test organism. The test organism is then allowed to grow in the presence of the filter paper disk for a period of 24 to 36 hours, after which the organism is evaluated for altered development in the zone around the disk. An observation of an inhibition of the formation of aerial mycelia and spores, without inhibition of the growth of vegetative mycelia is particularly indicative of the presence of an inhibitor of post-translational phosphorylation.

[2] = target: Human c-Src kinase (Homo sapiens, UniProt P12931); assay: Human c-Src kinase inhibition (PTK reaction); assay type: biochemical; details: 0.2 unit c-Src
Chain of Human c-Src kinase (P12931 whole entry): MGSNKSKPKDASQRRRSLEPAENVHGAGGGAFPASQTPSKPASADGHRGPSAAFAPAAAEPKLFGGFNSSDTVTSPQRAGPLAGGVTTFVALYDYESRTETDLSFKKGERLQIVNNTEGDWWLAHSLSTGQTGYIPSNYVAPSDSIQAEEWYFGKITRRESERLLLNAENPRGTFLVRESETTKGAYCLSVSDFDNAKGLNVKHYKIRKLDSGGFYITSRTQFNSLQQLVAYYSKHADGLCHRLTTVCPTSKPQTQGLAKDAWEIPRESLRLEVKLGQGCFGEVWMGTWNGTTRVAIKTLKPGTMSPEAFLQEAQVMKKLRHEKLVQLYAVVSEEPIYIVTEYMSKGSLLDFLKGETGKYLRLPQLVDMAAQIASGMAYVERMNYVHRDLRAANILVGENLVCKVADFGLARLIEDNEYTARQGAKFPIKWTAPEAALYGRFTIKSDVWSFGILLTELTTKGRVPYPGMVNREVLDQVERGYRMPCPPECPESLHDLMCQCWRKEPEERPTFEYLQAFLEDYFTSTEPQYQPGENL
Experimental: (§1) I. Human c-Src kinase incubated 30 min. at 30° C. with 5 ug usnic acid or-vulpinic acid: II. Human c-Src incubated 5 min. at 30° C. with 5 ug usnic acid or 5 ug vulpinic acid: 5 ug in the 50 ul PTK reaction mixture represents a concentration of about 300 uM for both of these compounds and twice that in the 25 ul PKC reactions. Thus, inhibition was detected for this particular protein tyrosine kinase and only minimally inhibitory for protein kinase C. Other protein kinases may show greater or lesser levels of inhibition.

[3] = system: Protein Kinase C; assay: Protein Kinase C inhibition (PKC reaction); assay type: biochemical; details: 10 ng PKC, incubated 30 min. at 30° C. with 5 ug compound (about 600 uM in 25 ul)
Experimental: as §1, with “III. Protein Kinase C” for “I. Human c-Src kinase”, “30” for “30 min. at 30° C. with 5 ug usnic acid or-vulpinic acid: II. Human c-Src incubated 5”

## COC(=O)/C(=C1/OC(=O)C(c2ccccc2)=C1O)c1ccccc1 [vulpinic acid]
[1]
  zone of inhibition at 10 µg/disc: 15 mm
  Growth of the vegetative mycelia: not inhibited
[2]; incubated 5 min. at 30° C. with 5 ug compound (about 300 uM in 50 ul)
  c-Src kinase reaction reading (control reaction 0.208): 0.180
[2]; incubated 30 min. at 30° C. with 5 ug compound (about 300 uM in 50 ul)
  c-Src kinase reaction reading (control reaction 0.562): 0.483
[3]
  Protein Kinase C reaction reading (control reaction 0.289): 0.230

## CC(=O)c1c(O)c(C)c(O)c2c1OC1=CC(=O)C(C(C)=O)C(=O)C12C (stereo not shown) [usnic acid]
[1]
  zone of inhibition at 10 µg/disc: 15 mm
  Growth of the vegetative mycelia: not inhibited
